Results taken from PubChem BioAssay AID328 (DTP/NCI, 2004).
“And” between values parts separate entries of the source, which are not always exact repeats. Equal values may be shown once. Inconclusive results and toxic doses are left out.

Tested on: BDF1 mice, P388 leukemia ip, median survival T/C
Test: NCI In Vivo Anticancer Drug Screen. Data for tumor model P388 Leukemia (intraperitoneal) in B6D2F1 (BDF1) mice
Details: endpoint: median survival time, higher = longer survival
In short: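 Compound-treated tumour-bearing mice were compared with vehicle-treated controls. Survival was recorded, and the value is the treated-group measurement divided by the control-group measurement (T/C).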

[1] = dose: 50.0 mg/kg/injection, schedule: Q01DX009 (ip), vehicle: water
[2] = dose: 100.0 mg/kg/injection, schedule: Q01DX009 (ip), vehicle: water
[3] = dose: 100.0 mg/kg/injection, schedule: Q04DX003 (ip), vehicle: water
[4] = dose: 200.0 mg/kg/injection, schedule: Q01DX009 (ip), vehicle: water
[5] = dose: 200.0 mg/kg/injection, schedule: Q04DX003 (ip), vehicle: saline with Tween-80
[6] = dose: 400.0 mg/kg/injection, schedule: Q04DX003 (ip), vehicle: saline with Tween-80
[7] = dose: 100.0 mg/kg/injection, schedule: Q01DX009 (ip), vehicle: saline with Tween-80
[8] = dose: 200.0 mg/kg/injection, schedule: Q01DX009 (ip), vehicle: saline with Tween-80
[9] = dose: 400.0 mg/kg/injection, schedule: Q01DX009 (ip), vehicle: saline with Tween-80
[10] = dose: 50.0 mg/kg/injection, schedule: Q01DX009 (ip), vehicle: saline with Tween-80

In the case of `O=c1[nH]nc(-c2ccccc2)nc1/C(=N\Nc1ccccc1)c1ccccc1`, the T/C (dose: 1.56 mg/kg/injection, schedule: Q01DX009 (ip), vehicle: saline with Tween-80) is reported as 92 % of control, the T/C (dose: 3.12 mg/kg/injection, schedule: Q01DX009 (ip), vehicle: saline with Tween-80) is reported as 107 % of control and the T/C (dose: 6.25 mg/kg/injection, schedule: Q01DX009 (ip), vehicle: saline with Tween-80) is reported as 95 % of control and 98 % of control. For the same molecule, the T/C (dose: 12.5 mg/kg/injection, schedule: Q01DX009 (ip), vehicle: saline with Tween-80) was 101 % of control and the T/C (dose: 25.0 mg/kg/injection, schedule: Q01DX009 (ip), vehicle: saline with Tween-80) was 92 % of control.
For `CCCCCCCCCCCCNC(=O)OCCN(CCOC(=O)NCCCCCCCCCCCC)C(=O)COc1ccc(Cl)cc1`, the T/C (dose: 100.0 mg/kg/injection, schedule: Q04DX003 (ip), vehicle: other) was 100 % of control, the T/C (dose: 200.0 mg/kg/injection, schedule: Q04DX003 (ip), vehicle: other) was 100 % of control and the T/C (dose: 400.0 mg/kg/injection, schedule: Q04DX003 (ip), vehicle: other) was 100 % of control.
For `COc1ccc(C(C)=O)cc1OCc1ccccc1`, the T/C [1] was 114 % of control, the T/C [2] was 109 % of control and the T/C [3] was 102 % of control. The T/C [4] was 119 % of control, the T/C (dose: 200.0 mg/kg/injection, schedule: Q04DX003 (ip), vehicle: water) was 102 % of control and the T/C (dose: 400.0 mg/kg/injection, schedule: Q01DX009 (ip), vehicle: water) was 111 % of control. The T/C (dose: 400.0 mg/kg/injection, schedule: Q04DX003 (ip), vehicle: water) was 111 % of control.
`C=Cc1ccccc1-c1ccccc1C(=O)OC` was tested, and the T/C [5] was 87 % of control and the T/C [6] was 105 % of control.
`CC(C)C[CH2][Pb]([Cl])([CH2]CC(C)C)[CH2]CC(C)C` was tested, and the T/C (dose: 0.12 mg/kg/injection, schedule: Q01DX009 (ip), vehicle: Klucel (hydroxypropylcellulose) (HPC)) was 104 % of control, the T/C (dose: 0.25 mg/kg/injection, schedule: Q01DX009 (ip), vehicle: Klucel (hydroxypropylcellulose) (HPC)) was 106 % of control and the T/C (dose: 0.5 mg/kg/injection, schedule: Q01DX009 (ip), vehicle: Klucel (hydroxypropylcellulose) (HPC)) was 109 % of control. The T/C (dose: 1.0 mg/kg/injection, schedule: Q01DX009 (ip), vehicle: Klucel (hydroxypropylcellulose) (HPC)) was 120 % of control.
For `CC[C@](O)(C(=O)O)c1cc2n(c(=O)c1CO)Cc1cc3ccccc3nc1-2`, the T/C (dose: 1.0 mg/kg/injection, schedule: Q01DX009 (ip), vehicle: water) was 112 % of control, the T/C (dose: 2.0 mg/kg/injection, schedule: Q01DX009 (ip), vehicle: saline) was 156 % of control and the T/C (dose: 2.0 mg/kg/injection, schedule: Q01DX009 (ip), vehicle: water) was 150 % of control. For the same molecule, the T/C (dose: 3.13 mg/kg/injection, schedule: Q04DX002 (ip), vehicle: saline) was 116 % of control, the T/C (dose: 4.0 mg/kg/injection, schedule: Q01DX009 (ip), vehicle: saline) was 171 % of control and the T/C (dose: 12.5 mg/kg/injection, schedule: Q04DX002 (ip), vehicle: saline) was 161 % of control. The T/C (dose: 12.5 mg/kg/injection, schedule: Q04DX009 (ip), vehicle: saline) was 192 % of control, the T/C (dose: 14.4 mg/kg/injection, schedule: Q04DX003 (ip), vehicle: saline) was 175 % of control and the T/C (dose: 18.0 mg/kg/injection, schedule: Q04DX003 (ip), vehicle: saline) was 175 % of control. The T/C (dose: 24.0 mg/kg/injection, schedule: Q04DX003 (ip), vehicle: saline) was 214 % of control, the T/C (dose: 25.0 mg/kg/injection, schedule: Q04DX002 (ip), vehicle: saline) was 199 % of control and the T/C (dose: 25.0 mg/kg/injection, schedule: Q04DX009 (ip), vehicle: saline) was 192 % of control. For the same molecule, the T/C (dose: 30.0 mg/kg/injection, schedule: Q04DX003 (ip), vehicle: saline) was 201 % of control, the T/C (dose: 33.0 mg/kg/injection, schedule: Q04DX003 (ip), vehicle: saline) was 168 % of control and the T/C (dose: 40.0 mg/kg/injection, schedule: Q04DX003 (ip), vehicle: saline) was 224 % of control. The T/C (dose: 40.0 mg/kg/injection, schedule: Q04DX003 (ip), vehicle: water) was 104 % of control, the T/C (dose: 50.0 mg/kg/injection, schedule: Q04DX003 (ip), vehicle: saline) was 172 % of control and the T/C (dose: 66.7 mg/kg/injection, schedule: Q04DX003 (ip), vehicle: saline) was 90 % of control. The T/C (dose: 75.0 mg/kg/injection, schedule: Q04DX003 (ip), vehicle: saline) was 200 % of control, the T/C (dose: 100.0 mg/kg/injection, schedule: Q01DX001 (ip), vehicle: saline) was 172 % of control and the T/C (dose: 150.0 mg/kg/injection, schedule: Q01DX001 (ip), vehicle: saline) was 43 % of control. For the same molecule, the T/C (dose: 175.0 mg/kg/injection, schedule: Q01DX001 (ip), vehicle: saline) was 90 % of control.
With `C1CC[N-]CC1.C1CC[N-]CC1.[Cl][Pt+2]([Cl])([Cl])[Cl]` the T/C [7] was 95 % of control and the T/C [8] was 90 % of control.
For `c1ccc(Cn2ccnc2C2OCCO2)cc1`, the T/C (dose: 6.25 mg/kg/injection, schedule: Q01DX009 (ip), vehicle: water) was 95 % of control, the T/C (dose: 12.5 mg/kg/injection, schedule: Q01DX009 (ip), vehicle: water) was 88 % of control and the T/C (dose: 12.5 mg/kg/injection, schedule: Q04DX003 (ip), vehicle: water) was 104 % of control. For the same molecule, the T/C (dose: 25.0 mg/kg/injection, schedule: Q04DX003 (ip), vehicle: water) was 101 % of control, the T/C [1] was 112 % of control and the T/C (dose: 50.0 mg/kg/injection, schedule: Q04DX003 (ip), vehicle: water) was 107 % of control. The T/C [2] was 93 % of control, the T/C [3] was 92 % of control and the T/C [4] was 87 % of control.
For `S=c1[nH]nc(-c2ccncc2)n1C1CCCCC1`, the T/C (dose: 50.0 mg/kg/injection, schedule: Q04DX002 (ip), vehicle: saline with Tween-80) was 96 % of control, the T/C (dose: 100.0 mg/kg/injection, schedule: Q04DX002 (ip), vehicle: saline with Tween-80) was 92 % of control and the T/C (dose: 200.0 mg/kg/injection, schedule: Q04DX002 (ip), vehicle: saline with Tween-80) was 97 % of control.
`O=C1C[C@H]2[C@H](CO)[C@@H](OC(=O)c3ccc(-c4ccccc4)cc3)C[C@H]2O1` was tested, and the T/C (dose: 12.5 mg/kg/injection, schedule: Q01DX009 (ip), vehicle: Klucel (hydroxypropylcellulose) (HPC)) was 105 % of control, the T/C (dose: 25.0 mg/kg/injection, schedule: Q01DX009 (ip), vehicle: Klucel (hydroxypropylcellulose) (HPC)) was 115 % of control and the T/C (dose: 50.0 mg/kg/injection, schedule: Q01DX009 (ip), vehicle: Klucel (hydroxypropylcellulose) (HPC)) was 105 % of control. The T/C (dose: 75.0 mg/kg/injection, schedule: Q01DX009 (ip), vehicle: saline with Tween-80) was 120 % of control.
With `CN(C)C(CCc1ccccc1)C(=O)O` (stereo not given) the T/C (dose: 100.0 mg/kg/injection, schedule: Q04DX003 (ip), vehicle: saline) was 100 % of control and the T/C (dose: 200.0 mg/kg/injection, schedule: Q04DX003 (ip), vehicle: saline) was 104 % of control.
With `O=c1[nH]cnc2n[nH]nc12` the T/C [7] was 108 % of control, the T/C (dose: 100.0 mg/kg/injection, schedule: Q04DX003 (ip), vehicle: saline with Tween-80) was 104 % of control and the T/C [8] was 124 % of control. For the same molecule, the T/C [5] was 113 % of control, the T/C [9] was 100 % of control and the T/C [6] was 104 % of control.
For `O.Oc1ccccc1C=NCCC[N-]CCCN=Cc1ccccc1O.[Co]`, the T/C [10] was 114 % of control.
`N#Cc1cccc(CC(O)(c2ccccc2)c2cccc3ccccc23)c1` (stereo not given) was tested, and the T/C [10] was 103 % of control, the T/C [7] was 97 % of control and the T/C [8] was 99 % of control.
`Sc1ccccc1-n1c(-c2ccccc2)ccc1-c1ccccc1` was tested, and the T/C [10] was 101 % of control, the T/C [7] was 88 % of control and the T/C [8] was 87 % of control. For the same molecule, the T/C [9] was 102 % of control.
For `Cc1c(N)c2ccccc2c(=O)n1C`, the T/C (dose: 50.0 mg/kg/injection, schedule: Q01DX005 (ip), vehicle: saline with Tween-80) was 92 % of control, the T/C (dose: 100.0 mg/kg/injection, schedule: Q01DX005 (ip), vehicle: saline with Tween-80) was 97 % of control and the T/C (dose: 200.0 mg/kg/injection, schedule: Q01DX005 (ip), vehicle: saline with Tween-80) was 106 % of control.
With `Nc1nc(SCc2ccccc2Cl)c2ncn(C3OC(CO)C(O)C3O)c2n1` (stereo not given) the T/C (dose: 100.0 mg/kg/injection, schedule: Q01DX009 (ip), vehicle: saline) was 105 % of control, the T/C (dose: 100.0 mg/kg/injection, schedule: Q04DX003 (ip), vehicle: Klucel (hydroxypropylcellulose) (HPC)) was 100 % of control and the T/C (dose: 200.0 mg/kg/injection, schedule: Q01DX009 (ip), vehicle: saline) was 90 % of control. The T/C (dose: 200.0 mg/kg/injection, schedule: Q04DX003 (ip), vehicle: Klucel (hydroxypropylcellulose) (HPC)) was 118 % of control and the T/C (dose: 400.0 mg/kg/injection, schedule: Q04DX003 (ip), vehicle: Klucel (hydroxypropylcellulose) (HPC)) was 118 % of control.
